In US5376634A, “Polypeptide compound and a process for preparation thereof” (Fujisawa Pharmaceutical Co., Ltd., priority 1990, dated 1994):
Starred links: 1 amine or outer side, 2 acyl side, 3 side chain; linkers in the order of their positions; H or OH if unused. Positions of bridges follow the written chain, without caps; N, C: chain ends. Non-standard residues stand in square brackets, D forms with d. Residues, ends and D or L forms follow the SMILES beside them. *: point of attachment. hTyr(3S-OH,4S-OH,3'-OSO3H) = N[C@H](C(=O)O)[C@H](O)[C@@H](O)c1ccc(O)c(OS(=O)(=O)O)c1; Orn(4R-OH,5S-OH) = O=C([C@H](C[C@@H](O)[C@H](O)N[*:3])N[*:1])[*:2]; Pro(3S-OH,4S-Me) = C[C@H]1CN[C@H](C(=O)O)[C@H]1O; Benzoyl(4-octyloxy) = CCCCCCCCOc1ccc(C(=O)*)cc1; Gln(3R-OH) = NC(=O)C[C@@H](O)[C@H](N)C(=O)O; Hyp = O=C(O)[C@@H]1C[C@@H](O)CN1

How the values were obtained:
ICR mice = assay: Acute toxicity, single intravenous injection; format: in vivo; conditions: ICR mice (female, 4 weeks old), dose of 500 mg/kg
Procedure: The acute toxicity of the FR131535 substance was determined to ICR mice (female, 4 weeks old) by a single intravenous injection.

[1] = Solubility (physico-chemical properties); format: physicochemical

CCCCCCCCOc1ccc(C(=O)N[C@H]2C[C@@H](O)[C@H](O)NC(=O)[C@@H]3[C@@H](O)[C@@H](C)CN3C(=O)[C@H]([C@H](O)CC(N)=O)NC(=O)[C@H]([C@H](O)[C@@H](O)c3ccc(O)c(OS(=O)(=O)O)c3)NC(=O)[C@@H]3C[C@@H](O)CN3C(=O)[C@H]([C@@H](C)O)NC2=O)cc1 [FR131535] ({Benzoyl(4-octyloxy)}-[Orn(4R-OH,5S-OH)]T[Hyp][hTyr(3S-OH,4S-OH,3'-OSO3H)][Gln(3R-OH)][Pro(3S-OH,4S-Me)]; lactam 1-C)
acute toxicity (ICR mice): No toxic symptom was observed | Solubility ([1]; acetone): slightly soluble | Solubility ([1]; methanol): soluble | Solubility ([1]; n-hexane): insoluble | Solubility ([1]; water): soluble
